# Reference: patent US10239933B2, “Compositions and methods for modulating thrombin generation” (The Children's Hospital of Philadelphia, priority 2011, dated 2019)
# “Also recorded” adds a separate entry of the source. Ends that are not written are not given here.
# Experiments:
# FXa/FV-DT [1] = molecular target: T1, FXa/FV-DT (Homo sapiens, UniProt P12259, DEL839-1519); test: Prothrombin activation assay, prothrombinase containing FV-810 (FV-DT); assay type: biochemical; conditions: peptide titrated, 1.4 μM prothrombin, 50 μM PCPS, 25° C.
# T1 construct: amino acids 1-28 are a signal peptide that is cleaved and numbering begins at residue 29; made in house
# T1 sequence (P12259 with tags, fused parts or gaps DEL839-1519): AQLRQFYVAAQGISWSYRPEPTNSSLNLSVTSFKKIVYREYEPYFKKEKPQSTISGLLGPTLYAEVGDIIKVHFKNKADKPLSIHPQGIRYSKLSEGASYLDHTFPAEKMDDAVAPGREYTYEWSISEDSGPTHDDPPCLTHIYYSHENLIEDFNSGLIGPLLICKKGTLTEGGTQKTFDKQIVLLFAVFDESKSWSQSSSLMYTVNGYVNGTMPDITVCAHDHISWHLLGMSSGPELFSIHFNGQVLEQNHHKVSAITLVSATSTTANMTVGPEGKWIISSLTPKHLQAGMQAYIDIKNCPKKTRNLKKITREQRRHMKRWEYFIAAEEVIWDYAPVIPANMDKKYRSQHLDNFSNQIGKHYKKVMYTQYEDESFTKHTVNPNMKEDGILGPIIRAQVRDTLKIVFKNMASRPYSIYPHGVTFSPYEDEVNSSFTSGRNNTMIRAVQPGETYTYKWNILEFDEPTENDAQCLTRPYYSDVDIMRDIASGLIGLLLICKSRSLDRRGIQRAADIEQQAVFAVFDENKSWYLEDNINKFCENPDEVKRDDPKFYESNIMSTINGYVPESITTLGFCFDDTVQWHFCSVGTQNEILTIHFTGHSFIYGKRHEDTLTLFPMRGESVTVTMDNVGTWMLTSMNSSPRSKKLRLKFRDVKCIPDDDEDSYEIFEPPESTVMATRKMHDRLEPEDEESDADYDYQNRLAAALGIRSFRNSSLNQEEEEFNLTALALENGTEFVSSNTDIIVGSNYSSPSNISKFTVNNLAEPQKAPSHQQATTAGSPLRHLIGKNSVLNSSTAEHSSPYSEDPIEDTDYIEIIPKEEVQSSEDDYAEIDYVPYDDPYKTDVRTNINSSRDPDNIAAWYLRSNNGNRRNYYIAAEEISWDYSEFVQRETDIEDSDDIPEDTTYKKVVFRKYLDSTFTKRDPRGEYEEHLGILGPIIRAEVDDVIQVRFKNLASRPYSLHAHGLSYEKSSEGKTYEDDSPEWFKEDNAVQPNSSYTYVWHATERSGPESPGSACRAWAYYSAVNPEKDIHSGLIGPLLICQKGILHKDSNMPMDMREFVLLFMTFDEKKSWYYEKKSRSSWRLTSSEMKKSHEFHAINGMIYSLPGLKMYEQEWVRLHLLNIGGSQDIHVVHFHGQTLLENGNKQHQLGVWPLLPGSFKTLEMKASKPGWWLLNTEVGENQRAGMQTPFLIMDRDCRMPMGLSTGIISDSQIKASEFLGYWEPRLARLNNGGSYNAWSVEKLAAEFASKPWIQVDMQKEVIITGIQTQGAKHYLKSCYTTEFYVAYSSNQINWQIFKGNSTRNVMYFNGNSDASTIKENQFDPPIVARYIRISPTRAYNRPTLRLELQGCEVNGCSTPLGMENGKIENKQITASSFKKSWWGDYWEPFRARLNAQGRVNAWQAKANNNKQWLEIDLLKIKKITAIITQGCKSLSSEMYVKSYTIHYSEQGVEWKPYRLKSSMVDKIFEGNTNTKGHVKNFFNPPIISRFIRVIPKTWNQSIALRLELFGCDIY
# Procedure: Steady-state initial velocities of prothrombin cleavage were determined discontinuously at 25° C. by measuring the initial rate of thrombin formation. Reaction mixtures contained liposomes (75:25, PC:PS), prothrombin, the indicated Factor V variants, and the Factor V peptides FVBR or s46. The reactions were initiated by adding Factor Xa, and thrombin generation was determined at multiple time points by monitoring the cleavage of the chromogenic thrombin substrate S-2238.
# Steady-state initial velocities of prothrombin cleavage were determined discontinuously at 25° C. as described (Camire, R. M. (2002) J. Biol. Chem., 277:37863-37870). Reaction mixtures containing PCPS (50 μM), DAPA (3 μM), prothrombin (1.4 μM), and either rFVa or the indicated FV-810 derivatives were incubated with B-domain peptides (0-10 μM) in assay buffer. […] Prothrombin activation was determined using the chromogenic thrombin substrate 52238 as described (Camire, R. M. (2002) J. Biol. Chem., 277:37863-37870).
# FV-810^R1545Q = molecular target: T2, FV-810^R1545Q (Homo sapiens, UniProt P12259, DEL839-1519/R1573Q); test: Clotting assay with FV-810^R1545Q; assay type: biochemical
# T2 construct: amino acids 1-28 are a signal peptide that is cleaved and numbering begins at residue 29; made in house
# T2 sequence (P12259 with tags, fused parts or gaps DEL839-1519/R1573Q): as the sequence (P12259 with tags, fused parts or gaps DEL839-1519) above, with R864Q counted along it
# Procedure: (§1) Residual clotting activity of Factor V variants was determined by prothrombin time-based clotting assays. Factor V variants were incubated with either the FVBR or s46 peptide, after which the mixtures were mixed with Factor V deficient plasma and clotting times were measured. Where indicated, the Factor V variants were activated by pre-incubation with thrombin prior to addition of the peptides.
# (§2) FV derivatives (500 nM) were prepared in assay buffer. Where noted, FV derivatives were pretreated with 10 nM thrombin for 15 minutes at 37° C., followed by the addition of 15 nM hirudin. Samples were diluted to 0.25 nM in assay buffer with 0.1% BSA, and the specific clotting activity was measured in FV-deficient plasma (George King Bio-Medical, Overland Park, Kans.) with TriniCLOT PT Excel (Tcoag, Wicklow, Ireland) as described (Camire et al. (1998) Biochemistry 37:11896-11906). The data are presented as the means±S.D.
# FXa/FVa = molecular target: T3, FXa/FVa (Homo sapiens, UniProt P12259); test: Binding of fluorescently labeled FXa to rFVa on liposomes (anisotropy); conditions: on PCPS liposomes
# T3 construct: thrombin rapidly cleaves Factor V at Arg709 to produce heavy chain (HC); rapidly cleaves at Arg1018 and Arg1545 to produce light chain (LC); made in house
# T3 sequence (P12259 29-737 limits assumed): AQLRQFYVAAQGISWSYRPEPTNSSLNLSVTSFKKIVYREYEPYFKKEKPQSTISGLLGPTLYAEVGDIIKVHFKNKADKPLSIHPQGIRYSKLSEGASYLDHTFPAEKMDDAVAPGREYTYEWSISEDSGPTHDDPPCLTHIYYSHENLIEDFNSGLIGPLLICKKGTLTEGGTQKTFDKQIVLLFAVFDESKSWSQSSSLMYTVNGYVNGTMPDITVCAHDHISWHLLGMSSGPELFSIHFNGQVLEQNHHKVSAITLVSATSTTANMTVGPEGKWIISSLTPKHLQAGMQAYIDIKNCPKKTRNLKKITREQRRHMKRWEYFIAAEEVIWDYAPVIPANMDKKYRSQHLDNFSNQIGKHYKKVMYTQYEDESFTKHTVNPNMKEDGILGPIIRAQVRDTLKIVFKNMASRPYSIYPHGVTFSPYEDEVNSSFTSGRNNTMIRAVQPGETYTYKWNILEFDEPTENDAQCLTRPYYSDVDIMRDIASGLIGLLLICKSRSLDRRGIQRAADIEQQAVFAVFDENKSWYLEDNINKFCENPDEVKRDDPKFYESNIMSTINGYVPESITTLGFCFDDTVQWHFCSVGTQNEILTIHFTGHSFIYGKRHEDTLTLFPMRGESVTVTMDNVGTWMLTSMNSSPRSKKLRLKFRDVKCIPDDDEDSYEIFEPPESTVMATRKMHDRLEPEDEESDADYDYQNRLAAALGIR
# T3 sequence (P12259 1574-2224 limits assumed): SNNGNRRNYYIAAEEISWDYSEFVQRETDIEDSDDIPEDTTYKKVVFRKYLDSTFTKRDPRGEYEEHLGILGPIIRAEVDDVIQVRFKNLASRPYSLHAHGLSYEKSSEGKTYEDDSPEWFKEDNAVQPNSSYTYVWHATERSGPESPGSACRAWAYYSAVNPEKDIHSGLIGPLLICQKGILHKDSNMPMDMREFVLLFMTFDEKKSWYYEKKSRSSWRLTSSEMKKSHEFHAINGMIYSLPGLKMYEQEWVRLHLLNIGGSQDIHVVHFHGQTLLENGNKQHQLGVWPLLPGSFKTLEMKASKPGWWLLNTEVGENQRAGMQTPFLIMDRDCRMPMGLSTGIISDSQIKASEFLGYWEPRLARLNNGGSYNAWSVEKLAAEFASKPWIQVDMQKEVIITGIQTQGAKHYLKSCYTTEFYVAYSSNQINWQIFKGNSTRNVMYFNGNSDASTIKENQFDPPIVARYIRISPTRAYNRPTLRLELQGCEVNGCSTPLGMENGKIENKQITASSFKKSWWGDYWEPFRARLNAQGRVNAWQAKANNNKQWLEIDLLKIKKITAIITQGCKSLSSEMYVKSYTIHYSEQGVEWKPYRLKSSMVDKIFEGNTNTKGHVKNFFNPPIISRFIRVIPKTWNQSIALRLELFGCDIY
# rFVa = molecular target: T4, rFVa (Homo sapiens, UniProt P12259); test: Clotting assay, FV-deficient plasma supplemented with rFVa; assay type: biochemical; conditions: FIG. 8B: 0.25 nM rFVa, peptides at 5 μM, listed as BR peptide
# T4 construct: thrombin rapidly cleaves Factor V at Arg709 to produce heavy chain (HC); rapidly cleaves at Arg1018 and Arg1545 to produce light chain (LC); made in house
# T4 sequence (P12259 29-737 limits assumed): T3 sequence (P12259 29-737 limits assumed)
# T4 sequence (P12259 1574-2224 limits assumed): T3 sequence (P12259 1574-2224 limits assumed)
# Procedure: as §1, §2
# plasma-derived Factor V = molecular target: T5, plasma-derived Factor V (Homo sapiens, UniProt P12259); test: Proteolytic activation of Factor V by thrombin (SDS-PAGE); assay type: biochemical; conditions: presence of FVBR
# T5 construct: from tissue; host or cells: plasma
# T5 sequence (P12259 29-2224): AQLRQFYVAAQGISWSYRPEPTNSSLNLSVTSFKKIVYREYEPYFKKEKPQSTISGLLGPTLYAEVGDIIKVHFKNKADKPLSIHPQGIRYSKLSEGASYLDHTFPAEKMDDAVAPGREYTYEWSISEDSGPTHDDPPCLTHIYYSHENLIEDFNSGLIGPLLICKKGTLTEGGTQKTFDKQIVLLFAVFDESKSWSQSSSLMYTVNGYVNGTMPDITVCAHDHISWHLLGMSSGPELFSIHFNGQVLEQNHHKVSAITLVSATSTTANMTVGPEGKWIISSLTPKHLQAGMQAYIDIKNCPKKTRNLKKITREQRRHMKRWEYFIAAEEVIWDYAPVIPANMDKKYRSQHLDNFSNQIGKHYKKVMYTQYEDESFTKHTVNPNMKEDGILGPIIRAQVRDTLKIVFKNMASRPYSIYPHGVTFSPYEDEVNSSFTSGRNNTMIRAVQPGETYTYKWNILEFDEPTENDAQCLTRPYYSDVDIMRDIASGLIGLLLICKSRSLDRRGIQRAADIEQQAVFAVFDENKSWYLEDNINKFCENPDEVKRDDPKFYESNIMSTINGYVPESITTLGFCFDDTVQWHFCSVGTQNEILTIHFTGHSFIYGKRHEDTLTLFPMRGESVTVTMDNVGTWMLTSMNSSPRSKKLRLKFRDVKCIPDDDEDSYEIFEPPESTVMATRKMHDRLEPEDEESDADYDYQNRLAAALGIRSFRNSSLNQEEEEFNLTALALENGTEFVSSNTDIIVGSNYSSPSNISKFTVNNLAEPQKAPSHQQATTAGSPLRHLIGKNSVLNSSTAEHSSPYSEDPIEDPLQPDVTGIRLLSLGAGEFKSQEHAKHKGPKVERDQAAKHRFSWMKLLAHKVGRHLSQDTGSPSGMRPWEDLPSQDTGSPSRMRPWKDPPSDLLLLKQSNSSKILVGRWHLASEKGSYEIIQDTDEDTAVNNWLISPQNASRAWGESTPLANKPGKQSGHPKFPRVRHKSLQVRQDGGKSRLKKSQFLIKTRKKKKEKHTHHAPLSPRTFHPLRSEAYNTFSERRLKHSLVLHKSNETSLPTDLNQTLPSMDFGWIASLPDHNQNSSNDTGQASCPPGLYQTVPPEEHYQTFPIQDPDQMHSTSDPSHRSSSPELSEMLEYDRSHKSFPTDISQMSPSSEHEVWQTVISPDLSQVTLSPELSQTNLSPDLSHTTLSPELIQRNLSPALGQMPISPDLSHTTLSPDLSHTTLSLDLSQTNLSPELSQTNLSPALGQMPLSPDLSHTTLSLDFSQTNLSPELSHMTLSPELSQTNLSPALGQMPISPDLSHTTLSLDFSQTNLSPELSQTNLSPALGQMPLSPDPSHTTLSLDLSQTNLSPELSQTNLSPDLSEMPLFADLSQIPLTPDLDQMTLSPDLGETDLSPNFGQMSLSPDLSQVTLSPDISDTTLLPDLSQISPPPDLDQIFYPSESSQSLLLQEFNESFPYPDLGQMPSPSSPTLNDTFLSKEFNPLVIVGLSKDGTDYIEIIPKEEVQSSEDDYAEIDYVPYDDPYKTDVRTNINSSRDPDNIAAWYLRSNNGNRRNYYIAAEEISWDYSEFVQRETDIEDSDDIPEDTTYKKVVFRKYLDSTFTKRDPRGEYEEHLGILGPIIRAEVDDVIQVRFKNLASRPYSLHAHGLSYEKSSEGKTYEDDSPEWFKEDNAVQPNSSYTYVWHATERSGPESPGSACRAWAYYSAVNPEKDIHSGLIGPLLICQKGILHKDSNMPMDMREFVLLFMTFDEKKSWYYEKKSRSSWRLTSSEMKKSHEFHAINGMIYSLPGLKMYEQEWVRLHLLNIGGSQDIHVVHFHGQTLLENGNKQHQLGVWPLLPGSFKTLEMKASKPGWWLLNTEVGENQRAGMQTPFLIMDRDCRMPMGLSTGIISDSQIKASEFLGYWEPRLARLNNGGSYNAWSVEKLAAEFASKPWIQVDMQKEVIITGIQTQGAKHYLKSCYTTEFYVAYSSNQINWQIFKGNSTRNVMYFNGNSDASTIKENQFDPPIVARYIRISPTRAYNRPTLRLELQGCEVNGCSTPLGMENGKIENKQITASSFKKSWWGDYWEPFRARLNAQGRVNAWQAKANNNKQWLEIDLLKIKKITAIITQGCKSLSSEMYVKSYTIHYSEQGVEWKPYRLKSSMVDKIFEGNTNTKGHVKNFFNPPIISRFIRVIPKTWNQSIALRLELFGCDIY
# Procedure: Plasma-derived Factor V was incubated with thrombin in the presence or absence of FVBR peptide. Samples were removed and quenched in sample buffer at the indicated times, and the cleavage products were analyzed by SDS-PAGE and Coomassie Brilliant Blue staining.
# normal human plasma = test: Clot time of normal human plasma; assay type: biochemical; conditions: increasing amounts of FVBR
# FXa/FV-DT [2] = molecular target: T1, FXa/FV-DT; test: Binding of fluorescently labeled FXa to FV-DT on liposomes (anisotropy); conditions: on PCPS liposomes
# FV-810 = molecular target: T6, FV-810 (Homo sapiens, UniProt P12259, DEL839-1519); test: Prethrombin-2 activation, competition of BR and FXa for FV-810; assay type: biochemical; conditions: read-out: Kd for FV-810 from prethrombin-2 activation, model for tight binding
# T6 construct: amino acids 1-28 are a signal peptide that is cleaved and numbering begins at residue 29; made in house
# T6 sequence (P12259 with tags, fused parts or gaps DEL839-1519): as the sequence (P12259 with tags, fused parts or gaps DEL839-1519) above
sequence,measurement,setting,value
SRAWGESTPLANKPGKQSGHPKFPRVRHKSLQVRQDGGKSRLKKSQFLIKTRKKKKEK [FVBR],inhibition of prothrombin activation with FV-810 (FV-DT),FXa/FV-DT [1],inhibiting; also recorded: inhibition
same,inhibition of prothrombin activation with FV-810 (FV-DT),FXa/FV-DT [1]; listed as BR peptide,effectively inhibited
same,inhibition of FV-810^R1545Q,FV-810^R1545Q; following incubation with thrombin,still inhibited
same,inhibition of FV-810^R1545Q,FV-810^R1545Q; prior to thrombin cleavage,potently inhibited
same,disruption of FXa binding to FVa,FXa/FVa,not FVa
same,inhibition of clotting activity of rFVa/FVa,rFVa,no inhibitory effect
same,"proteolytic activation of FV by thrombin, cleavage at Arg1545",plasma-derived Factor V,delays the proteolytic activation; also recorded: delayed cleavage
same,thrombin cleavage of FV at Arg709,plasma-derived Factor V,proceeds normally
same,clot time of normal plasma,normal human plasma,prolongs the clot time
same,disruption of FXa binding to FV-DT,FXa/FV-DT [2],impaired
same,disruption of FXa binding to FV-DT,FXa/FV-DT [2]; listed as FV basic region peptide,disrupts binding
same,Kd,FV-810,34.2 ± 3.6 nM
